From patent EP0086092A2, “Antifungal compositions” (priority 1982, dated 1983)
Values joined by “and” are separate entries in the source; they are usually repeats but may differ in a detail not shown here. Equal values may be shown once. Marks after values point to notes of the source that are not given here.

Tested on: Candida albicans B 311
Experiment: disc diffusion, zone of inhibition on seeded agar plates
Type: cell-based
Conditions: for Zone Size: Table I, glucose as carbon source, composition of 1 unit by weight aculeacin A + 5 units fatty acid; for Zone Size / Zone Size YNB agar: YNB agar; for Zone Size / Zone Size B 311 / Zone Size Sabouarud Agar / Zone Size YNB agar: 16-18 h; for Zone Size / Zone Size B 311: 28-37°C; for Zone Size Sabouarud Agar / Zone Size YNB agar: Table II, 37°C; for Zone Size Sabouarud Agar: Sabouarud dextrose agar; for Zone Size YNB agar: lysine
Experimental: The antifungal activity of aculeacin A and the compositions of aculeacin A and fatty acids was measured by disc diffusion.
The effects of a number of fatty acids on the antifungal activity of aculeacin A were determined by utilizing seeded plates of Candida albicans B 311 in yeast nitrogen base (YNB) agar (Difco) with glucose as the carbon source. A composition containing one unit by weight of aculeacin A and 5 units of fatty acid or the sodium salt thereof was spotted on the seeded plates and the size of the zone of inhibition after 16-18 hours incubation at 28-37 °C was measured.
Additional fatty acids were tested to determine , if they increased the intrinsic activity of aculeacin A against C. albicans B 311 utilizing seeded plates of YNB agar (Difco) with lysine as the carbon source and seeded plates of Sabouarud dextrose agar (Difco). Compositions containg one µg of aculeacin A and various amounts of the fatty acid was spotted on the seeded plates and the size of the zone of inhibition after 16-18 hours incubation at 37 °C was measured.
The antifungal effects of compositions containing a single amount of oleic acid as the sodium salt while varying the amounts of aculeacin A were determined by utilizing seeded plates of Candida albicans B 311 in Sabouarud dextrose agar and measuring the zone of inhibition after 16-18 hours incubation at 28-37°C.
The antifungal effects of compositions containing a single amount of aculeacin A while varying the amounts. of oleic acid as the sodium salt were determined by utilizing seeded plates of Candida albicans strains B 311, BC 759 and B 3153A and measuring the zone of inhibition after 16-18 hours at 28-37°C. This test was also performed with linoleic acid and linolenic acid.
The seeded plates of Candida albicans strains B 311, BC 759, and B 3153A were prepared by inoculating 50 ml of trypticase soy broth (BBL) with one ml of the preserved frozen culture and incubating the inoculum at 37°C for 7 hours on a rotary shaker. Two milliliters of this culture were used to inoculate one liter of Sabouarud dextrose agar (Difco) at 50°C and 15 milliliters of the resultant medium poured into 150 mm petri-dishes.

[1] = Tables IV-b, IV-c, aculeacin A 0 µg, fatty acid 28.1 µg alone
[2] = Tables IV-b, IV-c, aculeacin A 0 µg, fatty acid 56.2 µg alone
[3] = Tables IV-b, IV-c, aculeacin A 0 µg, fatty acid 112.5 µg alone
[4] = Tables IV-b, IV-c, aculeacin A 0.625 µg + fatty acid 28.1 µg
[5] = Tables IV-b, IV-c, aculeacin A 0.625 µg + fatty acid 56.2 µg
[6] = Tables IV-b, IV-c, aculeacin A 0.625 µg + fatty acid 112.5 µg
[7] = aculeacin A 0 µg, fatty acid 250 µg alone
[8] = aculeacin A 0 µg, fatty acid 500 µg alone
[9] = aculeacin A 0 µg, fatty acid 1000 µg alone
[10] = composition of aculeacin A 1 µg + fatty acid 500 µg
[11] = composition of aculeacin A 1 µg + fatty acid 1000 µg
[12] = aculeacin A 0 µg, fatty acid 50 µg alone
[13] = aculeacin A 0 µg, fatty acid 100 µg alone
[14] = aculeacin A 0 µg, fatty acid 200 µg alone
[15] = composition of aculeacin A 1 µg + fatty acid 50 µg
[16] = composition of aculeacin A 1 µg + fatty acid 100 µg
[17] = composition of aculeacin A 1 µg + fatty acid 200 µg
[18] = composition of aculeacin A 1 µg + fatty acid 250 µg
[19] = aculeacin A 0 µg, fatty acid 2000 µg alone
[20] = composition of aculeacin A 1 µg + fatty acid 2000 µg

| Compound | Zone Size | Zone Size Sabouarud Agar [7] | Zone Size Sabouarud Agar [8] | Zone Size Sabouarud Agar [9] | Zone Size Sabouarud Agar [10] | Zone Size Sabouarud Agar [11] | Zone Size YNB agar [7] | Zone Size YNB agar [8] | Zone Size YNB agar [9] | Zone Size YNB agar [10] | Zone Size YNB agar [11] | other results |
| --- | --- | --- | --- | --- | --- | --- | --- | --- | --- | --- | --- | --- |
| CCCCC/C=C\C/C=C\CCCCCCCC(=O)O [Linoleic Acid] | 23 mm | – | – | – | – | – | – | – | – | – | – | Zone Size B 311 (Table IV-b, aculeacin A 0 µg, fatty acid 225 µg alone): Trace; Zone Size B 311 (Table IV-b, aculeacin A 0.625 µg + fatty acid 225 µg): 19 mm; Zone Size B 311 [1]: 0 mm; Zone Size B 311 [2]: 0 mm; Zone Size B 311 [3]: 0 mm; Zone Size B 311 [4]: 22 mm; Zone Size B 311 [5]: 22 mm; Zone Size B 311 [6]: 21 mm |
| CC/C=C\C/C=C\C/C=C\CCCCCCCC(=O)O [Linolenic Acid] | 22 mm | – | – | – | – | – | – | – | – | – | – | Zone Size B 311 [1]: 0 mm; Zone Size B 311 [2]: 0 mm; Zone Size B 311 [3]: 0 mm; Zone Size B 311 [4]: 20 mm; Zone Size B 311 [5]: 19 mm; Zone Size B 311 [6]: 19 mm |
| CCCCCCCC/C=C\CCCCCCCCCCCC(=O)O [Erucic Acid] | – | 0 mm | 0 mm | 0 mm | 17 mm | Trace | 0 mm | 0 mm | 0 mm | 15 mm and 17 mm | 15 mm | – |
| Homo-γ-Linoleic Acid | – | – | – | – | – | – | – | – | – | – | – | Zone Size Sabouarud Agar [12]: 0 mm; Zone Size Sabouarud Agar [13]: 0 mm; Zone Size Sabouarud Agar [14]: 0 mm; Zone Size Sabouarud Agar [15]: 15 mm; Zone Size Sabouarud Agar [16]: 15 mm; Zone Size Sabouarud Agar [17]: 15 mm; Zone Size YNB agar [12]: 0 mm; Zone Size YNB agar [13]: 0 mm; Zone Size YNB agar [14]: 0 mm; Zone Size YNB agar [15]: 15* mm; Zone Size YNB agar [16]: 15* mm; Zone Size YNB agar [17]: 17* mm |
| CCCCCCCCCCCC(=O)O [Lauric Acid] | 22 mm | – | – | – | – | – | – | – | – | – | – | – |
| CCCCCCCCCCCCCC(=O)O [Myristic Acid] | 16 mm | – | – | – | – | – | – | – | – | – | – | – |
| CCCCCCCCCCC(O)C(=O)O (stereo not drawn) [α-Hydroxy Lauric Acid] | – | Trace | 10 (hazy) mm | 10 (hazy) mm | 15 mm | 20 mm | Trace | Trace | Trace | 24 mm | 25 mm | Zone Size Sabouarud Agar [18]: 15 mm; Zone Size YNB agar [18]: 20 mm |
| CCCCC/C=C/C/C=C/CCCCCCCC(=O)O [Linoelaidic Acid] | – | 0 mm | 0 mm | 0 mm | 20* mm | 24* mm | 0 mm | 0 mm | 0 mm | 17 mm | 16 mm | Zone Size Sabouarud Agar [18]: 20* mm; Zone Size YNB agar [18]: 26 mm; increase in the intrinsic activity of aculeacin A (composition of 250 units by weight fatty acid to one unit aculeacin A, Table II test): surprising increase in the intrinsic activity of aculeacin A |
| CCCCCC/C=C\CCCCCCCC(=O)O [Palmitoleic Acid] | 26 mm | – | – | – | – | – | – | – | – | – | – | – |
| CCCCCC/C=C/CCCCCCCCCC(=O)O [Vaccinic Acid] | – | – | 0 mm | 0 mm | 25 mm | 25 mm | – | 0 mm | 0 mm | 17 mm | 17 mm | Zone Size Sabouarud Agar [19]: 0 mm; Zone Size Sabouarud Agar [20]: 26 mm; Zone Size YNB agar [19]: 0 mm; Zone Size YNB agar [20]: 17 mm |
| CCCCCCCCCCCCCCCC(=O)O [Palmitic Acid] | 15 mm | – | – | – | – | – | – | – | – | – | – | – |
| CCCCCCCC(=O)O [Caprylic Acid] | 16 mm | – | – | – | – | – | – | – | – | – | – | – |
| CCCCCCCC/C=C/CCCCCCCC(=O)O [Eladic Acid] | – | 0 mm | 0 mm | 0 mm | 15 mm | 13 mm | 0 mm | 0 mm | 0 mm | 13 mm | 13 mm | Zone Size Sabouarud Agar [18]: 18 mm; Zone Size YNB agar [18]: 13 mm |
| CCCCCCCCCCCCCCCCCCCCCC(=O)O [Behenic Acid] | – | 0 mm | 0 mm | 0 mm | 14 mm | 20 mm | 0 mm | 0 mm | 0 mm | 14 mm | 15 mm | Zone Size Sabouarud Agar [18]: 15 mm; Zone Size YNB agar [18]: 14 mm |
| CCCCC/C=C\C/C=C\C/C=C\C/C=C\CCCC(=O)O [Arachidonic Acid] | – | 0 mm | 0 mm | 0 mm | 20* mm | 20* mm | 0 mm | 0 mm | 0 mm | 20 mm | 26 mm | Zone Size Sabouarud Agar [18]: 20* mm; Zone Size YNB agar [18]: 20 mm |
| CCCCCCCCCCCCCCCCCC(=O)O [Stearic Acid] | 15 mm | – | – | – | – | – | – | – | – | – | – | – |
| CCCCCC/C=C/CCCCCCCC(=O)O [Palmitelaidic Acid] | – | – | 0 mm | 0 mm | 30 mm | 32 mm | – | 0 mm | 0 mm | 20 mm | 20 mm | Zone Size Sabouarud Agar [19]: 0 mm; Zone Size Sabouarud Agar [20]: 25 mm; Zone Size YNB agar [19]: 0 mm; Zone Size YNB agar [20]: 22 mm |
